Measurements: patent US20210403485A1, “PYRAZOLOPYRIMIDINE DERIVATIVE AS SELECTIVE TRK INHIBITOR” (SHANDONG LUYE PHARMACEUTICAL CO., LTD., priority 2018, published 2021)
Where two headings read alike, the source gives them in different places.

Assays:
[1] = tested on: Ba/F3 ETV6-NTRK3 cells; assay: Efficacy test in animals: subcutaneous xenograft, intragastric administration; format: in vivo, nude mice; settings: for TGI (tumor growth inhibition rate): day of dissection; for Tumor inhibition rate (by tumor weight) / Tumor weight: end of the test
Procedure: Cells in the logarithmic growth phase were collected and resuspended in serum-free medium to a cell concentration of 2-4×10^7 cells/mL. An equal volume of matrigel was added to the cell suspension to achieve a final cell concentration of 1-2×10^7 cells/mL. 0.2 mL of tumor cell suspension was subcutaneously inoculated at the scapula of each nude mouse with the inoculation amount of 2-4×10^6 cells/mouse to prepare the animal models.

[2] = biological target: T1, BaF3 ETV6-NTRK3-WT (Homo sapiens, UniProt Q16288); assay: Inhibitory activity against cell proliferation (CellTiter-Glo, 72 hours); format: cell-based; settings: read-out: Half maximal inhibitory concentration IC50 of cells, BaF3 ETV6-NTRK3-WT
T1 construct: fused on or other part: N-terminal part of ETV6 (TEL) as fusion partner (part of the key); P41212 (Transcription factor ETV6)
Procedure, shortened: (§1)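 Log-phase Ba/F3 cells (trypan blue viability above 90%) were treated in triplicate with a 9-point, 3-fold compound series. ATP-dependent luminescence was read after CellTiter-Glo addition, and IC50 values came from nonlinear sigmoidal dose-response fits.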

[3] = biological target: T2, BaF3 LMNA-NTRK1-G667A (Homo sapiens, UniProt P04629, G667A, cells depend on it); assay: as above; format: cell-based; settings: read-out: Half maximal inhibitory concentration IC50 of cells, BaF3 LMNA-NTRK1-G667A
T2 construct: fused on or other part: N-terminal part of LMNA as fusion partner (part of the key); P02545 (Prelamin-A/C)
Procedure, shortened: as §1

[4] = biological target: T3, Ba/F3 LMNA-NTRK1-F589L (Homo sapiens, UniProt P04629, F589L, cells depend on it); assay: as above; format: cell-based; settings: read-out: Half maximal inhibitory concentration IC50 of cells, Ba/F3 LMNA-NTRK1-F589L
T3 construct: fused on or other part: N-terminal part of LMNA as fusion partner (part of the key); P02545 (Prelamin-A/C)
Procedure, shortened: as §1

[5] = biological target: T4, BaF3 LMNA-NTRK1-G595R (Homo sapiens, UniProt P04629, G595R, cells depend on it); assay: as above; format: cell-based; settings: read-out: Half maximal inhibitory concentration IC50 of cells, BaF3 LMNA-NTRK1-G595R
T4 construct: fused on or other part: N-terminal part of LMNA as fusion partner (part of the key); P02545 (Prelamin-A/C)
Procedure, shortened: as §1

[6] = Pharmacokinetic test of compounds in mice (plasma, LC/MS/MS); format: in vivo, male CD-1 mice; settings: for AUC(0-t): read-out: Area under the curve AUC0-last
Procedure: Experimental purpose: male CD-1 mice aged 7-9 weeks were selected as test animals, and the drug concentrations of the compounds in plasma at different time points after single intravenous injection (IV) and intragastric administration (PO) of the compounds were measured by an LC/MS/MS method, so that the pharmacokinetic behavior of the compounds disclosed herein in mice was studied, and the pharmacokinetic characteristic of the compounds was evaluated.
Drug preparation: the compounds were all prepared into clear solution by taking 5% DMSO+10% solutol+85% water as vehicle, and were used for administration in IV and PO groups. The dose of each compound administered was: IV, 3 mg/kg; PO, 10 mg/kg.

T4 sequence (P04629 whole entry G595R, the tested form may be a part): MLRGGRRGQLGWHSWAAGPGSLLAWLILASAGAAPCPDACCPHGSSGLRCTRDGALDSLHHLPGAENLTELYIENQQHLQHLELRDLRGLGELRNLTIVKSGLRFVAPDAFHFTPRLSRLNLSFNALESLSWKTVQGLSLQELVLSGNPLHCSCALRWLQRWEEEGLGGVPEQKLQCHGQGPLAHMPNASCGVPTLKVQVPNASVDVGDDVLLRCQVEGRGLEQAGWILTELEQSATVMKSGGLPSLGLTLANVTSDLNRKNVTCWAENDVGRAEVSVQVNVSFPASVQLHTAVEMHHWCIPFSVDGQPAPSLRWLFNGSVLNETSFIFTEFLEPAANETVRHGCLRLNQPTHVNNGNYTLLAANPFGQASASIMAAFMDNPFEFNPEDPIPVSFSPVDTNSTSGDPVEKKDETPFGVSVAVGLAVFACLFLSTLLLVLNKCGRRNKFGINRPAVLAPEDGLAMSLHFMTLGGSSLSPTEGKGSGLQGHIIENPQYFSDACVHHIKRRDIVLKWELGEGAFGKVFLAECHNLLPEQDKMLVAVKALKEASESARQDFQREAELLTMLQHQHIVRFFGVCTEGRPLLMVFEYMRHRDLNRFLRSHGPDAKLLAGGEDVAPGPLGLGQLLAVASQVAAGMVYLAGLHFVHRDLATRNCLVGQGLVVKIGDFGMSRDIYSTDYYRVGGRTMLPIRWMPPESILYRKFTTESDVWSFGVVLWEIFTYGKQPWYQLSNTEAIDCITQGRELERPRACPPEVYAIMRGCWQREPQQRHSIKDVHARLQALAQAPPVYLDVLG
T2 sequence (P04629 whole entry G667A, the tested form may be a part): as the sequence (P04629 whole entry G595R, the tested form may be a part) above, with R595G, G667A counted along it
T1 sequence (Q16288 whole entry, stated change not applied, the tested form may be a part): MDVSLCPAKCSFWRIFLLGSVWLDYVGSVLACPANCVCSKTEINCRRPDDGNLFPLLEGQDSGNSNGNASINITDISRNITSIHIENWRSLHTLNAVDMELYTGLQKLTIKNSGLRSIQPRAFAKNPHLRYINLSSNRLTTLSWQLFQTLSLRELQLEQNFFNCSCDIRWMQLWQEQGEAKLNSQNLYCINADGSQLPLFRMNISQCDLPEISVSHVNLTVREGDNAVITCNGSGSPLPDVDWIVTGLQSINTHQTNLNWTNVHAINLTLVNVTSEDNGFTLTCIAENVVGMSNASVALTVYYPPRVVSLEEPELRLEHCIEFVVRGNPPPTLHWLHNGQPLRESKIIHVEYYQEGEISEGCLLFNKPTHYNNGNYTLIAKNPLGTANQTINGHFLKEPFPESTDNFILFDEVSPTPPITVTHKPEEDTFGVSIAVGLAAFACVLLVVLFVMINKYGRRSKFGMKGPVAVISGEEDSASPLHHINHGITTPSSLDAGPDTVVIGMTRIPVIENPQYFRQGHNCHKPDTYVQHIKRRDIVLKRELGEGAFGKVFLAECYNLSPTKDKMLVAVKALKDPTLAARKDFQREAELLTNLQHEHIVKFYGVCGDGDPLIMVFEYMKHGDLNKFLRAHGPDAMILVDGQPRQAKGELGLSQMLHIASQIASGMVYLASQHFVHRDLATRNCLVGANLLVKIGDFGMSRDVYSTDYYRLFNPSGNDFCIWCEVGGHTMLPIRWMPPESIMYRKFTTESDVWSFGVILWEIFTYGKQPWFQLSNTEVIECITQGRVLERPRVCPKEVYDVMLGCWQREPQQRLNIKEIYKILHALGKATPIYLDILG
T3 sequence (P04629 whole entry F589L, the tested form may be a part): as the sequence (P04629 whole entry G595R, the tested form may be a part) above, with F589L, R595G counted along it

In the case of O=C1NC2(CC2)COc2ncc(F)cc2C2COCCN2c2ccn3ncc1c3n2 (single isomer, unassigned) [WX001B], the “Relative tumor proliferation rate T/C” value ([1]; Day 5, 2.5 mg/kg bid) is reported as 29.79%, the Tumor volume ([1]; Day 5, 2.5 mg/kg bid) is reported as 376.59 ± 84.87 mm^3 and the “Relative tumor proliferation rate T/C” value ([1]; Day 5, 5 mg/kg bid) is reported as 22.33%. For the same compound, the Tumor volume ([1]; Day 5, 5 mg/kg bid) was 282.31 ± 46.30 mm^3, the “Relative tumor proliferation rate T/C” value ([1]; Day 5, 10 mg/kg bid) was 19.15% and the Tumor volume ([1]; Day 5, 10 mg/kg bid) was 242.09 ± 78.53 mm^3. For the same compound, the “Relative tumor proliferation rate T/C” value ([1]; Day 5, 20 mg/kg bid) was 22.72%, the Tumor volume ([1]; Day 5, 20 mg/kg bid) was 287.22 ± 96.26 mm^3 and the “Relative tumor proliferation rate T/C” value ([1]; Day 7, 2.5 mg/kg bid) was 18.12%. The Tumor volume ([1]; Day 7, 2.5 mg/kg bid) was 388.09 ± 100.42 mm^3, the “Relative tumor proliferation rate T/C” value ([1]; Day 7, 5 mg/kg bid) was 16.77% and the Tumor volume ([1]; Day 7, 5 mg/kg bid) was 353.35 ± 109.82 mm^3. For the same compound, the “Relative tumor proliferation rate T/C” value ([1]; Day 7, 10 mg/kg bid) was 12.50%, the Tumor volume ([1]; Day 7, 10 mg/kg bid) was 263.53 ± 134.53 mm^3 and the “Relative tumor proliferation rate T/C” value ([1]; Day 7, 20 mg/kg bid) was 9.56%. The Tumor volume ([1]; Day 7, 20 mg/kg bid) was 201.43 ± 135.76 mm^3, the “Relative tumor proliferation rate T/C” value ([1]; Day 9, 2.5 mg/kg bid) was 18.22% and the Tumor volume ([1]; Day 9, 2.5 mg/kg bid) was 499.09 ± 161.54 mm^3. The “Relative tumor proliferation rate T/C” value ([1]; Day 9, 5 mg/kg bid) was 16.04%, the Tumor volume ([1]; Day 9, 5 mg/kg bid) was 439.46 ± 222.47 mm^3 and the “Relative tumor proliferation rate T/C” value ([1]; Day 9, 10 mg/kg bid) was 7.73%. For the same compound, the Tumor volume ([1]; Day 9, 10 mg/kg bid) was 211.85 ± 87.87 mm^3, the “Relative tumor proliferation rate T/C” value ([1]; Day 9, 20 mg/kg bid) was 4.91% and the Tumor volume ([1]; Day 9, 20 mg/kg bid) was 134.49 ± 117.51 mm^3. For the same compound, the “Relative tumor proliferation rate T/C” value ([1]; Day 11, 2.5 mg/kg bid) was 15.67%, the Tumor volume ([1]; Day 11, 2.5 mg/kg bid) was 590.74 ± 266.98 mm^3 and the “Relative tumor proliferation rate T/C” value ([1]; Day 11, 5 mg/kg bid) was 8.73%. The Tumor volume ([1]; Day 11, 5 mg/kg bid) was 328.91 ± 190.07 mm^3, the “Relative tumor proliferation rate T/C” value ([1]; Day 11, 10 mg/kg bid) was 4.82% and the Tumor volume ([1]; Day 11, 10 mg/kg bid) was 181.69 ± 121.62 mm^3. The “Relative tumor proliferation rate T/C” value ([1]; Day 11, 20 mg/kg bid) was 2.89%, the Tumor volume ([1]; Day 11, 20 mg/kg bid) was 109.00 ± 116.94 mm^3 and the “TGI (tumor growth inhibition rate)” value ([1]; 2.5 mg/kg bid) was 84.33%. The “TGI (tumor growth inhibition rate)” value ([1]; 5 mg/kg bid) was 91.27%, the “TGI (tumor growth inhibition rate)” value ([1]; 10 mg/kg bid) was 95.18% and the “TGI (tumor growth inhibition rate)” value ([1]; 20 mg/kg bid) was 97.11%. For the same compound, the “Tumor inhibition rate (by tumor weight)” value ([1]; 2.5 mg/kg bid) was 85.47%, the Tumor weight ([1]; 2.5 mg/kg bid) was 0.25 ± 0.15 g and the “Tumor inhibition rate (by tumor weight)” value ([1]; 5 mg/kg bid) was 89.51%. For the same compound, the Tumor weight ([1]; 5 mg/kg bid) was 0.18 ± 0.08 g, the “Tumor inhibition rate (by tumor weight)” value ([1]; 10 mg/kg bid) was 93.42% and the Tumor weight ([1]; 10 mg/kg bid) was 0.12 ± 0.10 g. For the same compound, the “Tumor inhibition rate (by tumor weight)” value ([1]; 20 mg/kg bid) was 96.47%, the Tumor weight ([1]; 20 mg/kg bid) was 0.06 ± 0.03 g and the GI50 [2] was 2.6 nM. For the same compound, the GI50 [3] was 0.8 nM, the GI50 [4] was 7.7 nM and the GI50 [5] was 2.7 nM. The “Apparent clearance Cl” value ([6]; IV, 3 mg/kg) was 7.33 mL/min/kg, the Vd ([6]; male, CD-1, mouse, plasma, IV, 3 mg/kg, read-out: Apparent volume of distribution Vd) was 0.77 L/kg and the AUC(0-t) ([6]; male, CD-1, mouse, plasma, IV, 3 mg/kg) was 16.6 µM·h. For the same compound, the half-life ([6]; male, CD-1, mouse, plasma, IV, 3 mg/kg, read-out: Half-life T1/2 (converted)) was 1.58 h, the AUC(0-t) ([6]; male, CD-1, mouse, plasma, PO, 10 mg/kg) was 49.1 µM·h and the bioavailability ([6]; male, CD-1, mouse, plasma, PO, 10 mg/kg, read-out: Bioavailability F %) was 89%. The Cmax ([6]; male, CD-1, mouse, plasma, PO, 10 mg/kg, read-out: Peak concentration Cmax) was 12.2 µM.
